Test results: patent US7851474B2, “Dipiperazinyl ketones and related analogues” (Neurogen Corporation, priority 2005, dated 2010)

The compounds below were run against T1, chimeric human H3 receptor (Homo sapiens, UniProt Q9Y5N1, E19D) (assay: Chimeric human H3 receptor screening GTP binding assay (inhibition of histamine-stimulated GTP-gamma35S binding, Example 8)). Conditions: 1 h; Table II, "+" in the column headed Ki; assay of Example 8; read-out: percent inhibition of agonist-induced GTP-gammaS binding to H3.
T1 construct: made in house; host or cells: Sf9 insect cells (baculovirus infection); P2 membrane preparation
T1 sequence (Q9Y5N1 with tags, fused parts or gaps E19D): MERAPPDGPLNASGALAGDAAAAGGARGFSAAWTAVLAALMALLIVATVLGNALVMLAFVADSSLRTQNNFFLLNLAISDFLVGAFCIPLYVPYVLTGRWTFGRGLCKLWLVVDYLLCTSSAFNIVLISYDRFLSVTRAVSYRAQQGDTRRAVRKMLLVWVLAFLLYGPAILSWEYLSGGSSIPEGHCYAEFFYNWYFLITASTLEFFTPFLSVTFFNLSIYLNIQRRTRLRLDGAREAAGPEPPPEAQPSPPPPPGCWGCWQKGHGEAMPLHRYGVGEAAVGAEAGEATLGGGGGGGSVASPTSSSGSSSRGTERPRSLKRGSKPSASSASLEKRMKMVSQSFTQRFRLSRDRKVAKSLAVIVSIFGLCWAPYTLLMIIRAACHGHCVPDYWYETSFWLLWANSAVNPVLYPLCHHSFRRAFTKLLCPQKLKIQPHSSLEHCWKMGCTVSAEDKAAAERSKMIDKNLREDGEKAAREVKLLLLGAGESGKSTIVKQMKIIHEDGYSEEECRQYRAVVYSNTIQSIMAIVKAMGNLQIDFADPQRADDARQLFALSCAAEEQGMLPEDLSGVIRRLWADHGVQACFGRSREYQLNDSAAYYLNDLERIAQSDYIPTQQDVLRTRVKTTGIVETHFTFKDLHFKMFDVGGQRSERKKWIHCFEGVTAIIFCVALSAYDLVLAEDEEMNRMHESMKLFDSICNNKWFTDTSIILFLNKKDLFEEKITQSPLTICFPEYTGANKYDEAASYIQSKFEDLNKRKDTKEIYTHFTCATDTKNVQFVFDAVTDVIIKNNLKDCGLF
Assay type: biochemical
Summary of the method: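 Sf9 membranes co-expressing the chimeric receptor and a heterotrimeric G-protein (35 μg protein) in Tris pH 7.4 buffer with 10 μM GDP; compound at 4 μM plus 1 μM histamine, 125 pM GTP-gamma35S, 60 min at room temperature. Filter-bound radioactivity read; non-specific binding defined with 10 uM GTP-gammaS; percent inhibition of histamine signal.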
Work on O=C(Cc1ccc(C(F)(F)F)cc1)N1CCN(CC(=O)N2CCN(C3CCC3)CC2)CC1 [Compound 631, 1-cyclobutyl-4-[(4-{[4-(trifluoromethyl)phenyl]acetyl}piperazin-1-yl)acetyl]piperazine] yielded an inhibition at 4 µM greater than 90%. For O=C(CN1CCN(C(=O)c2cnccc2C(F)(F)F)CC1)N1CCN(C2CCC2)CC1 [Compound 632, 1-cyclobutyl-4-[(4-{[4-(trifluoromethyl)pyridin-3-yl]carbonyl}piperazin-1-yl)acetyl]piperazine], the inhibition at 4 µM was greater than 90%. With CSc1ccc(C(=O)N2CCN(CC(=O)N3CCN(C4CCC4)CC3)CC2)s1 [Compound 633, 1-cyclobutyl-4-[(4-{[5-(methylthio)-2-thienyl]carbonyl}piperazin-1-yl)acetyl]piperazine] the inhibition at 4 µM was greater than 90%. For O=C(CN1CCN(C(=O)c2cncc(C#Cc3ccccc3)c2)CC1)N1CCN(C2CCC2)CC1 [Compound 634, 1-cyclobutyl-4-[(4-{[5-(phenylethynyl)pyridin-3-yl]carbonyl}piperazin-1-yl)acetyl]piperazine], the inhibition at 4 µM was greater than 90%. With O=C(CN1CCN(C(=O)c2ccc(-n3cccc3)nc2)CC1)N1CCN(C2CCC2)CC1 [Compound 635, 1-cyclobutyl-4-[(4-{[6-(1H-pyrrol-1-yl)pyridin-3-yl]carbonyl}piperazin-1-yl)acetyl]piperazine] the inhibition at 4 µM was greater than 90%. In the case of O=C(CN1CCN(C(=O)c2ccc(OCC(F)(F)F)nc2)CC1)N1CCN(C2CCC2)CC1 [Compound 636, 1-cyclobutyl-4-[(4-{[6-(2,2,2-trifluoroethoxy)pyridin-3-yl]carbonyl}piperazin-1-yl)acetyl]piperazine], the inhibition at 4 µM is reported as greater than 90%. With CC(Oc1ccc(OC(F)(F)F)cc1)C(=O)N1CCN(CC(=O)N2CCN(C3CCC3)CC2)CC1 (centres unmarked) [Compound 637, 1-cyclobutyl-4-[(4-{2-[4-(trifluoromethoxy)phenoxy]propanoyl}piperazin-1-yl)acetyl]piperazine] the inhibition at 4 µM was greater than 90%. In the case of O=C(CN1CCN(C(=O)c2ccncc2)CC1)N1CCN(C2CCC2)CC1 [Compound 655, 1-cyclobutyl-4-[(4-isonicotinoylpiperazin-1-yl)acetyl]piperazine], the inhibition at 4 µM is reported as greater than 90%. Compound COc1ccc(OC)c(Sc2ncccc2C(=O)N2CCN(CC(=O)N3CCN(C4CCC4)CC3)CC2)c1 [Compound 659, 1-cyclobutyl-4-{[4-({2-[(2,5-dimethoxyphenyl)thio]pyridin-3-yl}carbonyl)piperazin-1-yl]acetyl}piperazine] has an inhibition at 4 µM greater than 90%. Work on Cc1nc(-c2ccc(C(F)(F)F)cc2)sc1C(=O)N1CCN(CC(=O)N2CCN(C3CCC3)CC2)CC1 [Compound 660, 1-cyclobutyl-4-{[4-({4-methyl-2-[4-(trifluoromethyl)phenyl]-1,3-thiazol-5-yl}carbonyl)piperazin-1-yl]acetyl}piperazine] yielded an inhibition at 4 µM greater than 90%. Cn1nc(C(F)(F)F)cc1-c1ccc(C(=O)N2CCN(CC(=O)N3CCN(C4CCC4)CC3)CC2)s1 [Compound 661, 1-cyclobutyl-4-{[4-({5-[1-methyl-3-(trifluoromethyl)-1H-pyrazol-5-yl]-2-thienyl}carbonyl)piperazin-1-yl]acetyl}piperazine] gave an inhibition at 4 µM greater than 90%. Compound O=C(CN1CCN(C(=O)c2cccc3ccccc23)CC1)N1CCN(C2CCC2)CC1 [Compound 662, 1-cyclobutyl-4-{[4-(1-naphthoyl)piperazin-1-yl]acetyl}piperazine] has an inhibition at 4 µM greater than 90%. O=C(Cc1cccc2ccccc12)N1CCN(CC(=O)N2CCN(C3CCC3)CC2)CC1 [Compound 663, 1-cyclobutyl-4-{[4-(1-naphthylacetyl)piperazin-1-yl]acetyl}piperazine] showed an inhibition at 4 µM greater than 90%. In the case of O=C(CN1CCN(C(=O)c2cccc(Cl)c2Cl)CC1)N1CCN(C2CCC2)CC1 [Compound 664, 1-cyclobutyl-4-{[4-(2,3-dichlorobenzoyl)piperazin-1-yl]acetyl}piperazine], the inhibition at 4 µM is reported as greater than 90%. O=C(CN1CCN(C(=O)C2COc3ccccc3O2)CC1)N1CCN(C2CCC2)CC1 (centres unmarked) [Compound 668, 1-cyclobutyl-4-{[4-(2,3-dihydro-1,4-benzodioxin-2-ylcarbonyl)piperazin-1-yl]acetyl}piperazine] was tested, and the inhibition at 4 µM was greater than 90%. With O=C(CN1CCN(C(=O)c2ccc3c(c2)CCO3)CC1)N1CCN(C2CCC2)CC1 [Compound 669, 1-cyclobutyl-4-{[4-(2,3-dihydro-1-benzofuran-5-ylcarbonyl)piperazin-1-yl]acetyl}piperazine] the inhibition at 4 µM was greater than 90%. COc1cccc(C(=O)N2CCN(CC(=O)N3CCN(C4CCC4)CC3)CC2)c1OC [Compound 670, 1-cyclobutyl-4-{[4-(2,3-dimethoxybenzoyl)piperazin-1-yl]acetyl}piperazine] showed an inhibition at 4 µM greater than 90%. With Cc1cccc(C(=O)N2CCN(CC(=O)N3CCN(C4CCC4)CC3)CC2)c1C [Compound 671, 1-cyclobutyl-4-{[4-(2,3-dimethylbenzoyl)piperazin-1-yl]acetyl}piperazine] the inhibition at 4 µM was greater than 90%. O=C(CN1CCN(C(=O)c2ccc(Cl)cc2Cl)CC1)N1CCN(C2CCC2)CC1 [Compound 674, 1-cyclobutyl-4-{[4-(2,4-dichlorobenzoyl)piperazin-1-yl]acetyl}piperazine] gave an inhibition at 4 µM greater than 90%. COc1ccc(C(=O)N2CCN(CC(=O)N3CCN(C4CCC4)CC3)CC2)c(OC)c1 [Compound 677, 1-cyclobutyl-4-{[4-(2,4-dimethoxybenzoyl)piperazin-1-yl]acetyl}piperazine] gave an inhibition at 4 µM greater than 90%. With Cc1ccc(C(=O)N2CCN(CC(=O)N3CCN(C4CCC4)CC3)CC2)c(C)c1 [Compound 679, 1-cyclobutyl-4-{[4-(2,4-dimethylbenzoyl)piperazin-1-yl]acetyl}piperazine] the inhibition at 4 µM was greater than 90%. O=C(CN1CCN(C(=O)c2cc(Cl)ccc2Cl)CC1)N1CCN(C2CCC2)CC1 [Compound 681, 1-cyclobutyl-4-{[4-(2,5-dichlorobenzoyl)piperazin-1-yl]acetyl}piperazine] was tested, and the inhibition at 4 µM was greater than 90%. In the case of O=C(CN1CCN(C(=O)c2cc(F)ccc2F)CC1)N1CCN(C2CCC2)CC1 [Compound 684, 1-cyclobutyl-4-{[4-(2,5-difluorobenzoyl)piperazin-1-yl]acetyl}piperazine], the inhibition at 4 µM is reported as greater than 90%. Compound COc1ccc(OC)c(C(=O)N2CCN(CC(=O)N3CCN(C4CCC4)CC3)CC2)c1 [Compound 686, 1-cyclobutyl-4-{[4-(2,5-dimethoxybenzoyl)piperazin-1-yl]acetyl}piperazine] has an inhibition at 4 µM greater than 90%. Cc1cc(C(=O)N2CCN(CC(=O)N3CCN(C4CCC4)CC3)CC2)c(C)o1 [Compound 688, 1-cyclobutyl-4-{[4-(2,5-dimethyl-3-furoyl)piperazin-1-yl]acetyl}piperazine] was tested, and the inhibition at 4 µM was greater than 90%. For Cc1ccc(C)c(C(=O)N2CCN(CC(=O)N3CCN(C4CCC4)CC3)CC2)c1 [Compound 689, 1-cyclobutyl-4-{[4-(2,5-dimethylbenzoyl)piperazin-1-yl]acetyl}piperazine], the inhibition at 4 µM was greater than 90%. For O=C(CN1CCN(C(=O)c2c(Cl)cccc2Cl)CC1)N1CCN(C2CCC2)CC1 [Compound 691], the inhibition at 4 µM was greater than 90%. O=C(CN1CCN(C(=O)c2cc(Cl)nc(Cl)c2)CC1)N1CCN(C2CCC2)CC1 [Compound 692] gave an inhibition at 4 µM greater than 90%. For O=C(CN1CCN(C(=O)c2c(F)cccc2F)CC1)N1CCN(C2CCC2)CC1 [Compound 693, 1-cyclobutyl-4-{[4-(2,6-difluorobenzoyl)piperazin-1-yl]acetyl}piperazine], the inhibition at 4 µM was greater than 90%.
